Measured values reported in US8742106B2 (Novartis AG, priority 2009, dated 2014).

Experiments:
human orexin 1 receptors = human orexin 1 receptors (Homo sapiens (Human), UniProt O43613); experiment: Calcium Accumulation in Cells (FLIPR), antagonism of orexin A; assay type: cell-based; settings: for inhibition at 10 µM: measured at a concentration of 10 μM of compound, read-out: FLIPR hOx1R % inhibition value; for Ki: antagonism of orexin A, Cheng-Prusoff corrected, read-out: FLIPR hOx1R Ki
human orexin 2 receptors = human orexin 2 receptors (Homo sapiens (Human), UniProt O43614); experiment: as above; assay type: cell-based; settings: for Ki: antagonism of orexin A, Cheng-Prusoff corrected, read-out: FLIPR hOx2R Ki; for inhibition at 10 µM: measured at a concentration of 10 μM of compound, read-out: FLIPR hOx2R % inhibition value
Sequence of human orexin 2 receptors (O43614 whole entry): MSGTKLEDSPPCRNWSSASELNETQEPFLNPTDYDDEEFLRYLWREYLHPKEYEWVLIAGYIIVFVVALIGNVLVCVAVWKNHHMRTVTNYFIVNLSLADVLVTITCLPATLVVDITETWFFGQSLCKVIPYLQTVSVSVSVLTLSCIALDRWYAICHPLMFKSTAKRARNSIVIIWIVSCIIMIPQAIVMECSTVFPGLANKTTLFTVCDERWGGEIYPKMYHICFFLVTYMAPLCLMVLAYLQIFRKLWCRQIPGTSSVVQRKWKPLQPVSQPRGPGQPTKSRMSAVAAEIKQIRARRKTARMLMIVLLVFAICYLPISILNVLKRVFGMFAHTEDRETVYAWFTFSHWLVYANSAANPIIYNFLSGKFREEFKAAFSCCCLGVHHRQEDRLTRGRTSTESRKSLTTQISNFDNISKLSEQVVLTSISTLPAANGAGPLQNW
In short: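 Antagonism was measured as block of orexin A-evoked Ca²⁺ fluorescence (FLIPR), with orexin A added one hour after test compound (usually 10^−9–10^−5 M), which was first read alone for agonist activity. Human orexin 2 receptor cells were dye-loaded with 2 μM Fluo4-AM and 0.1 mM probenecid for 1 h.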

Sequence of human orexin 1 receptors (O43613 whole entry): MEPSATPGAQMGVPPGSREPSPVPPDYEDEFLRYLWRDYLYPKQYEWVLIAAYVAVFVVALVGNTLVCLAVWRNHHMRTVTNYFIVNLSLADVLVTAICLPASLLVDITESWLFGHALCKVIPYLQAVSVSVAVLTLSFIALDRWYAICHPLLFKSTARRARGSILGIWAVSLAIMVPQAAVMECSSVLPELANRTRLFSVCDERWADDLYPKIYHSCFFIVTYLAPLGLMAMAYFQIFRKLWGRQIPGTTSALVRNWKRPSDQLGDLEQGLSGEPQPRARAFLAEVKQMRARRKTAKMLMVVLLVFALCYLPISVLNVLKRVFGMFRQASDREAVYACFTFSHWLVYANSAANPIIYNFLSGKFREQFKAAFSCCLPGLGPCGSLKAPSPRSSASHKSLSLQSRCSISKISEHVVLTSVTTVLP

Cc1cc(OCC(=O)NC2CCc3cc(F)ccc32)nc2c1c(C1CC1)nn2C (stereo not shown) [Example 6.40, 2-(3-cyclopropyl-1,4-dimethyl-1H-pyrazolo[3,4-b]pyridin-6-yloxy)-N-(5-fluoro-2,3-dihydro-1H-inden-1-yl)acetamide]
inhibition at 10 µM (human orexin 1 receptors): 21%
Ki (human orexin 2 receptors): 589 nM

Cc1cc(OCC(=O)NCC(C)C)nc2c1c(C1CC1)nn2C [Example 6.45, 2-(3-cyclopropyl-1,4-dimethyl-1H-pyrazolo[3,4-b]pyridin-6-yloxy)-N-isobutylacetamide]
inhibition at 10 µM (human orexin 1 receptors): 20%
inhibition at 10 µM (human orexin 2 receptors): 19%

Cc1cc(OCC(=O)NC2CCCC2)nc2c1c(C1CC1)nn2C [Example 6.46, N-cyclopentyl-2-(3-cyclopropyl-1,4-dimethyl-1H-pyrazolo[3,4-b]pyridin-6-yloxy)acetamide]
inhibition at 10 µM (human orexin 1 receptors): 16%
inhibition at 10 µM (human orexin 2 receptors): 26%

COc1ccc(C(C)NC(=O)COc2cc(C)c3c(C4CC4)nn(C)c3n2)cn1 (stereo not shown) [Example 6.47, 2-(3-cyclopropyl-1,4-dimethyl-1H-pyrazolo[3,4-b]pyridin-6-yloxy)-N-(1-(6-methoxypyridin-3-yl)ethyl)acetamide]
Ki (human orexin 1 receptors): 1490 nM
Ki (human orexin 2 receptors): 747 nM

Cc1cc(OCC(=O)NC(C)c2cc(CC(C)(C)C)on2)nc2c1c(C1CC1)nn2C (stereo not shown) [Example 6.48, 2-(3-cyclopropyl-1,4-dimethyl-1H-pyrazolo[3,4-b]pyridin-6-yloxy)-N-(1-(5-neopentylisoxazol-3-yl)ethyl)acetamide]
inhibition at 10 µM (human orexin 1 receptors): < 10%
inhibition at 10 µM (human orexin 2 receptors): < 10%

Cc1cc(OCC(=O)NCCc2ccccc2)nc2c1c(C1CC1)nn2C [Example 6.49, 2-(3-cyclopropyl-1,4-dimethyl-1H-pyrazolo[3,4-b]pyridin-6-yloxy)-N-phenethylacetamide]
inhibition at 10 µM (human orexin 1 receptors): 21%
Ki (human orexin 2 receptors): 611 nM

Cc1cc(OCC(=O)NCCCc2ccccc2)nc2c1c(C1CC1)nn2C [Example 6.50, 2-(3-cyclopropyl-1,4-dimethyl-1H-pyrazolo[3,4-b]pyridin-6-yloxy)-N-(3-phenylpropyl)acetamide]
inhibition at 10 µM (human orexin 1 receptors): 10%
inhibition at 10 µM (human orexin 2 receptors): 42%

COc1ccc([C@H](C)N(C)C(=O)COc2cc(C)c3c(C4CC4)nn(C)c3n2)cc1 [Example 6.51]
inhibition at 10 µM (human orexin 1 receptors): 26%
Ki (human orexin 2 receptors): 575 nM

CNC(=O)COc1cc(C)c2c(C3CC3)nn(C)c2n1 [Example 6.52]
inhibition at 10 µM (human orexin 1 receptors): < 10%
inhibition at 10 µM (human orexin 2 receptors): < 10%

Cc1cc(OCC(=O)NC(C)C2CC2)nc2c1c(C1CC1)nn2C (stereo not shown) [Example 6.53]
inhibition at 10 µM (human orexin 1 receptors): 17%
inhibition at 10 µM (human orexin 2 receptors): 38%

CCn1ccc(C(C)NC(=O)COc2cc(C)c3c(C4CC4)nn(C)c3n2)n1 (stereo not shown) [Example 6.54]
inhibition at 10 µM (human orexin 1 receptors): 44%
inhibition at 10 µM (human orexin 2 receptors): 29%

Cc1ccc(C(C)NC(=O)COc2cc(C)c3c(C4CC4)nn(C)c3n2)cn1 (stereo not shown) [Example 6.55]
inhibition at 10 µM (human orexin 1 receptors): 53%
Ki (human orexin 2 receptors): 525 nM

Cc1cc(OCC(=O)N[C@@H](C)C2CCCC2)nc2c1c(C1CC1)nn2C [Example 6.56, (S)-N-(1-cyclopentylethyl)-2-(3-cyclopropyl-1,4-dimethyl-1H-pyrazolo[3,4-b]pyridin-6-yloxy)acetamide]
inhibition at 10 µM (human orexin 1 receptors): < 10%
inhibition at 10 µM (human orexin 2 receptors): < 10%

Cc1cc(OCC(=O)NC(C)c2ccc3c(c2)ncn3C)nc2c1c(C1CC1)nn2C (stereo not shown) [Example 6.58, 2-(3-cyclopropyl-1,4-dimethyl-1H-pyrazolo[3,4-b]pyridin-6-yloxy)-N-(1-(1-methyl-1H-benzo[d]imidazol-5-yl)ethyl)acetamide]
Ki (human orexin 1 receptors): 1010 nM
Ki (human orexin 2 receptors): 382 nM

Cc1ccc([C@H](C)NC(=O)COc2nc3c(cc2C)c(C2CC2)nn3C)cc1 [Example 6.60, (S)-2-(3-cyclopropyl-1,5-dimethyl-1H-pyrazolo[3,4-b]pyridin-6-yloxy)-N-(1-p-tolylethyl)acetamide]
inhibition at 10 µM (human orexin 1 receptors): 11%
Ki (human orexin 2 receptors): 1170 nM

COc1ccc(C(C)(C)NC(=O)COc2cc(C)c3c(C4CC4)nn(C)c3n2)cc1 [Example 6.62, 2-(3-cyclopropyl-1,4-dimethyl-1H-pyrazolo[3,4-b]pyridin-6-yloxy)-N-(2-(4-methoxyphenyl)propan-2-yl)acetamide]
Ki (human orexin 1 receptors): 626 nM
Ki (human orexin 2 receptors): 160 nM

Cc1cc2c(cn1)[C@@H](NC(=O)COc1cc(C)c3c(C4CC4)nn(C)c3n1)CC2 [Example 6.64, (S)-2-(3-cyclopropyl-1,4-dimethyl-1H-pyrazolo[3,4-b]pyridin-6-yloxy)-N-(3-methyl-6,7-dihydro-5H-cyclopenta[c]pyridin-7-yl)acetamide]
Ki (human orexin 1 receptors): 783 nM
Ki (human orexin 2 receptors): 93 nM

Cc1cnc2c(c1)CC[C@@H]2NC(=O)COc1cc(C)c2c(C3CC3)nn(C)c2n1 [Example 6.65, (S)-2-(3-cyclopropyl-1,4-dimethyl-1H-pyrazolo[3,4-b]pyridin-6-yloxy)-N-(3-methyl-6,7-dihydro-5H-cyclopenta[b]pyridin-7-yl)acetamide]
inhibition at 10 µM (human orexin 1 receptors): < 10%
Ki (human orexin 2 receptors): 825 nM

Cc1ccc(CNC(=O)COc2cc(C)c3c(C4CC4)nn(C)c3n2)cc1 [Example 6.66, 2-(3-cyclopropyl-1,4-dimethyl-1H-pyrazolo[3,4-b]pyridin-6-yloxy)-N-(4-methylbenzyl)acetamide]
Ki (human orexin 1 receptors): 3890 nM
Ki (human orexin 2 receptors): 1300 nM

COc1ccc(CNC(=O)COc2cc(C)c3c(C4CC4)nn(C)c3n2)cc1 [Example 6.67, 2-(3-cyclopropyl-1,4-dimethyl-1H-pyrazolo[3,4-b]pyridin-6-yloxy)-N-(4-methoxybenzyl)acetamide]
inhibition at 10 µM (human orexin 1 receptors): 29%
inhibition at 10 µM (human orexin 2 receptors): 40%

Cc1cc(OCC(=O)N[C@H]2CCc3cc(OC(C)C)ccc32)nc2c1c(C1CC1)nn2C [Example 6.69, (S)-2-(3-cyclopropyl-1,4-dimethyl-1H-pyrazolo[3,4-b]pyridin-6-yloxy)-N-(5-isopropoxy-2,3-dihydro-1H-inden-1-yl)acetamide]
Ki (human orexin 1 receptors): 126 nM
inhibition at 10 µM (human orexin 2 receptors): 31%

COc1ccc([C@H](C)NC(=O)C(C)Oc2cc(C)c3c(C4CC4)nn(C)c3n2)cc1 (stereo partly drawn) [Example 6.70, 2-(3-cyclopropyl-1,4-dimethyl-1H-pyrazolo[3,4-b]pyridin-6-yloxy)-N-((S)-1-(4-methoxyphenyl)ethyl)propanamide]
Ki (human orexin 1 receptors): 1060 nM
Ki (human orexin 2 receptors): 1070 nM

COc1ccc([C@H](C)NC(=O)COc2nc3c(c(C4CC4)nn3C)c(C)c2C)cc1 [Example 6.74, (S)-2-(3-cyclopropyl-1,4,5-trimethyl-1H-pyrazolo[3,4-b]pyridin-6-yloxy)-N-(1-(4-methoxyphenyl)ethyl)acetamide]
inhibition at 10 µM (human orexin 1 receptors): 23%
inhibition at 10 µM (human orexin 2 receptors): 38%

Cc1ccc([C@H](C)NC(=O)COc2nc3c(c(C4CC4)nn3C)c(C)c2C)cc1 [Example 6.75, (S)-2-(3-cyclopropyl-1,4,5-trimethyl-1H-pyrazolo[3,4-b]pyridin-6-yloxy)-N-(1-p-tolylethyl)acetamide]
Ki (human orexin 1 receptors): 1750 nM
Ki (human orexin 2 receptors): 567 nM

COc1ccc([C@H](C)NC(=O)COc2nc3c(cc2C)c(C2CC2)nn3C)cc1 [Example 6.76, (S)-2-(3-cyclopropyl-1,5-dimethyl-1H-pyrazolo[3,4-b]pyridin-6-yloxy)-N-(1-(4-methoxyphenyl)ethyl)acetamide]
inhibition at 10 µM (human orexin 1 receptors): 23%
inhibition at 10 µM (human orexin 2 receptors): 34%

C[C@H](NC(=O)COc1cc(C(F)(F)F)c2c(-c3ccccc3)noc2n1)c1ccccc1 [Example 6.78, (S)-2-(3-phenyl-4-(trifluoromethyl)isoxazolo[5,4-b]pyridin-6-yloxy)-N-(1-phenylethyl)acetamide]
inhibition at 10 µM (human orexin 1 receptors): 43%
Ki (human orexin 2 receptors): 1830 nM
